Results reported in article PMC11203437, “Subtle Structural Differences Affect the Inhibitory Potency of RGD-Containing Cyclic Peptide Inhibitors Targeting SPSB Proteins” (International Journal of Molecular Sciences, 2024).
Peptide text beside a SMILES is read from it.

T1: SPSB2 (His6-tagged SPRY domain of human SPSB2, residues 22-220) (Homo sapiens, UniProt Q99619)
T1 construct: His6; made in house
T1 sequence (Q99619 22-220): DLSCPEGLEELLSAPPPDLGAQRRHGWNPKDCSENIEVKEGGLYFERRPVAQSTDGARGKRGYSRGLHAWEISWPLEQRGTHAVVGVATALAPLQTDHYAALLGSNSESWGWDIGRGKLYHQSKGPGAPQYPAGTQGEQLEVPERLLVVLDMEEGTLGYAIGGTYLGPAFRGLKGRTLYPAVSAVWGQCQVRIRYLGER

T2: His6-tagged SPRY domain of human SPSB2 (residues 22-220) (human, UniProt Q99619 22-220)
T2 construct: SPRY domain of human SPSB2, UniProtKB Q99619, residues 22-220; also called SPRY domain-containing SOCS box protein 2; source: recombinant, purified (Ni-NTA; complexes with peptide by gel filtration on Superdex 75); preparation previously described [26]
T2 sequence (looked up): T1 sequence (Q99619 22-220)

T3: GST-tagged SPRY domain of human SPSB1 (residues 28-232) (human, UniProt Q96BD6 28-232)
T3 construct: SPRY domain of human SPSB1, UniProtKB Q96BD6, residues 28-232; Cloned into pGEX-4T-2; also called SPSP1; source: recombinant, induced with IPTG in LB medium, purified (glutathione sepharose 4B)
T3 sequence (looked up): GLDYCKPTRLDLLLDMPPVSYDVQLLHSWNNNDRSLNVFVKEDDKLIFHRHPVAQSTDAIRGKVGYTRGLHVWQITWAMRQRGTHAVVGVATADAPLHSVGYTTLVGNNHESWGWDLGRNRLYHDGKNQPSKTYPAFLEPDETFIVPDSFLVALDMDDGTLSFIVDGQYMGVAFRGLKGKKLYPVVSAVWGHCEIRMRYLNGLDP

T4: GST-tagged SPRY domain of human SPSB4 (residues 28-232) (human, UniProt Q96A44 28-232)
T4 construct: SPRY domain of human SPSB4, UniProtKB Q96A44, residues 28-232; Cloned into pGEX-4T-2; source: recombinant, induced with IPTG in LB medium, purified (glutathione sepharose 4B)
T4 sequence (looked up): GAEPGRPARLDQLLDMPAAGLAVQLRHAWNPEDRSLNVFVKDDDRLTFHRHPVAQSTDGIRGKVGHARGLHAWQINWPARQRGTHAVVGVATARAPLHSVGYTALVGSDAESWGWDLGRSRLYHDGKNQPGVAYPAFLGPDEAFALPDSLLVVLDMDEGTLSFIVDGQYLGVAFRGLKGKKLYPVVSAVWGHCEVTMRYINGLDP

B1: cR7, cyclo(RGDINNN) (peptide)
peptide: RGDINNN
modifications: head-to-tail amide-cyclized
notes: Cyclic: the last residue is amide-bonded to the first; source: synthetic peptide (GL Biochem Ltd.)
B2: cR9, cyclo(RGDINNNVE) (peptide)
peptide: RGDINNNVE
modifications: head-to-tail amide-cyclized
notes: designed cyclic peptide: RGD motif joined to the iNOS-derived stretch DINNNVE; Cyclic: the last residue is amide-bonded to the first; source: synthetic peptide (GL Biochem Ltd.)

Tests used:
[1] = molecular target: T1, SPSB2 (His6-tagged SPRY domain of human SPSB2, residues 22-220); test: isothermal titration calorimetry (ITC), binding to SPSB2; details: ITC Kd compared with cR8 Kd reported previously [19]
Protocol: (§1) The preparation of the recombinant His6-tagged SPRY domain of human SPSB2 (UniProtKB accession number Q99619, residues 22-220) has been previously described. Briefly, SPSB2 protein was initially purified using a Ni-NTA column and the amount of the protein was measured using the Bradford method. Either cR7 or cR9, at 1.5-fold molar excess, was then added to the protein and the SPSB2-cR7 and SPSB2-cR9 complexes were purified by gel filtration using a HiLoad 16/600 Superdex 75 column (GE Healthcare, Marlborough, MA, USA) equilibrated against a buffer containing 50 mM Tris-HCl pH 7.5, 150 mM NaCl, 5 mM DTT. To generate the GST-fusion proteins used in the cell lysate inhibition assay, the SPRY domains of human TRIM25 (UniProtKB Q14258, residues 433-630), SPSB2, SPSB1 (UniProtKB Q96BD6, residues 28-232), and SPSB4 (UniProtKB Q96A44, residues 28-232) were inserted into the pGEX-4T-2 vector (GE Healthcare, Marlborough, MA, USA). Protein expression was induced in an LB medium supplemented with 0.1 mM isopropyl β-D-1-thiogalactopyranoside (IPTG) at 18 °C overnight. […]
All ITC measurements were performed at 25 °C using iTC200 (Malvern Panalytical, Malvern, UK). […] The dissociation constant (Kd) was calculated, with the error from the Origin-calculated association constant (K) transferred as the same fraction of the primary value.

[2] = system: SPSB2-iNOS interaction (GST-tagged SPRY domain of SPSB2; full-length iNOS from RAW 264.7 lysate); test: cell lysate inhibition assay, SPSB2-iNOS interaction (GST pull-down, Western blot); type: biochemical, human (SPSB2); details: for displacement of full-length iNOS from SPSB2: 10 μM peptide, LPS/IFN-γ-stimulated RAW 264.7 lysate, 2 h, pH 7.5 lysis buffer, GST pull-down, anti-iNOS Western blot
Protocol: (§2) Figure 6 Inhibition of SPSB-iNOS interactions by cR7, cR8, and cR9. Cell lysates from lipopolysaccharide/interferon-γ-stimulated RAW 264.7 cells were incubated with the GST-tagged SPRY domains of (A) SPSB2, (B) SPSB1, and (C) SPSB4 in the absence or presence of cR7, cR8, and cR9. GST-tagged SPRY domain of TRIM25 was used as a negative control. A 9-mer linear peptide (hK9) derived from the iNOS N-terminal region was included as a control. After interaction for 2 h, GST-fusion proteins were recovered via affinity purification using glutathione-sepharose 4B beads. Interaction with full-length iNOS was analyzed by Western blotting with anti-iNOS antibody (upper panels) and equivalent protein input was confirmed by reprobing the membranes with anti-GST antibody (lower panels).
as §1, with “overnight. Cells were harvested and resuspended in PBS, and then lysed using a cell disruptor (JNBIO, Guangzhou, China). Soluble GST-tagged proteins were purified using a glutathione sepharose 4B column prepared with PBS.” for “overnight.”

[3] = system: SPSB1-iNOS interaction (GST-tagged SPRY domain of SPSB1; full-length iNOS from RAW 264.7 lysate); test: cell lysate inhibition assay, SPSB1-iNOS interaction (GST pull-down, Western blot); type: biochemical, human (SPSB1); details: for inhibition of SPSB1-iNOS interaction: 1 μM peptide, LPS/IFN-γ-stimulated RAW 264.7 lysate, 2 h, GST pull-down, anti-iNOS Western blot
Protocol: as §2
as §1, with “overnight. Cells were harvested and resuspended in PBS, and then lysed using a cell disruptor (JNBIO, Guangzhou, China). Soluble GST-tagged proteins were purified using a glutathione sepharose 4B column prepared with PBS.” for “overnight.”

[4] = system: SPSB4-iNOS interaction (GST-tagged SPRY domain of SPSB4; full-length iNOS from RAW 264.7 lysate); test: cell lysate inhibition assay, SPSB4-iNOS interaction (GST pull-down, Western blot); type: biochemical, human (SPSB4); details: for displacement of full-length iNOS from SPSB4: 10 μM peptide, LPS/IFN-γ-stimulated RAW 264.7 lysate, 2 h, GST pull-down, anti-iNOS Western blot
Protocol: as §2
as §1, with “overnight. Cells were harvested and resuspended in PBS, and then lysed using a cell disruptor (JNBIO, Guangzhou, China). Soluble GST-tagged proteins were purified using a glutathione sepharose 4B column prepared with PBS.” for “overnight.”

[5] = molecular target: T2, His6-tagged SPRY domain of human SPSB2 …; test: ITC; 100 μM cR7 or cR9 titrated into 10 μM SPSB2; 25 °C; 50 mM Tris-HCl pH 7.5, 150 mM NaCl, 5 mM DTT; single binding site model; details: both partners purified
[6] = molecular target: T3, GST-tagged SPRY domain of human SPSB1 …; test: pull-down; competition: 1 μM or 10 μM cyclic peptide added to the RAW 264.7 lysate with 2 μg/mL GST-tagged SPRY domain for 2 h; iNOS recovered on glutathione sepharose 4B read by Western blot; details: both partners purified
[7] = molecular target: T4, GST-tagged SPRY domain of human SPSB4 …; test: as above; details: both partners purified
[8] = overall comparison of cR7, cR8 and cR9, 1 or 10 μM, Western blot

| Molecule | SPSB2-binding affinity, fold higher than cR8 [1] | displacement of full-length iNOS from SPSB2 [2] | overall inhibition of SPSB2-iNOS interaction, relative [2, 8] | inhibition of SPSB1-iNOS interaction [3] | overall inhibition of SPSB1-iNOS interaction, relative [3, 8] | displacement of full-length iNOS from SPSB4 [4] | overall inhibition of SPSB4-iNOS interaction, relative [4, 8] | Kd [5] [nM] | stoichiometry N [5] | binding result [6] | binding result [7] |
| --- | --- | --- | --- | --- | --- | --- | --- | --- | --- | --- | --- |
| CC[C@H](C)[C@@H]1NC(=O)[C@H](CC(=O)O)NC(=O)CNC(=O)[C@H](CCCNC(=N)N)NC(=O)[C@H](CC(N)=O)NC(=O)[C@H](CC(N)=O)NC(=O)[C@H](CC(N)=O)NC1=O [cR7, cyclo(RGDINNN)] (cyclo(RGDINNN)) | ~ 6.5 fold | able to displace full-length iNOS binding to SPSB2 | stronger inhibition | can effectively inhibit SPSB1-iNOS interaction | stronger inhibition | able to displace full-length iNOS binding to SPSB4 | stronger inhibition |  |  |  |  |
| CC[C@H](C)[C@@H]1NC(=O)[C@H](CC(=O)O)NC(=O)CNC(=O)[C@H](CCCNC(=N)N)NC(=O)[C@H](CCC(=O)O)NC(=O)[C@H](C(C)C)NC(=O)[C@H](CC(N)=O)NC(=O)[C@H](CC(N)=O)NC(=O)[C@H](CC(N)=O)NC1=O [cR9, cyclo(RGDINNNVE)] (cyclo(RGDINNNVE)) | ~ 2 fold | able to displace full-length iNOS binding to SPSB2 |  | can effectively inhibit SPSB1-iNOS interaction |  | able to displace full-length iNOS binding to SPSB4 |  |  |  |  |  |
| B1 |  |  |  |  |  |  |  | 103 | 1 | binds | binds |
| B2 |  |  |  |  |  |  |  | 308 |  | binds | binds |
